According to patent publication US20240315992A1, “AMINOXY ACID-BASED ANTIBACTERIAL COMPOUNDS AND METHODS THEREOF” (The University of Hong Kong, priority 2023, published 2024):
≈ marks a conversion by molar mass, not a printed value. Where two headings read alike, the source gives them in different places.

Columns and labels:
[1] = test system: multidrug resistant Staphylococcus aureus Mu3; test: MIC by CLSI broth micro-dilution, MRSA Mu3; format: cell-based
Protocol: Aminoxy acids were synthesized by the standard peptide coupling procedures. Minimum inhibitory concentration was determined using CLSI broth micro-dilution method in 96-wells microtitre plates. Minimum inhibitory concentration is defined as the lowest concentration of the compound that inhibits visible growth of the bacteria. All experiments were performed three times. 24 compounds including aminoxy acid monomers and dipeptides have been identified to show toxicity against multidrug resistant Staphylococcus aureus Mu3 and summarized in Table 1. The minimum inhibitory concentration of compound 8 and compound 35 on other gram-positive bacteria was also evaluated and summarized in Table 2. […] As shown in FIGS. 3A-3B there are no observable hemolysis for compound 8 and compound 35 towards human red blood cell.
Bacteria were streaked from the glycerol stock into BHI agar and were incubated overnight. Single colony was picked for the overnight culture in cation-adjusted Mueller Hinton broth (CAMH), LB or BHI. The overnight culture was sub-cultured and regrew to exponential phase for the experiment.
MIC was determined by CLSI broth micro-dilution method in 96-wells microtitre plates. For compounds dissolved in water, 100 μL of 2× testing concentration was added to the first well of each column, followed by two-fold serial dilution for successive wells with 50 μL medium. For chemical compounds dissolved in DMSO, the compounds were two-fold serial diluted by DMSO in a DMSO-compatible 96-well plate. 1 μL of compound in DMSO was transferred into 96-wells microtitre plate containing 50 μL medium to give 2× testing concentration. An overnight culture of bacteria was grown into exponential phase. The bacteria culture was diluted to 1×10^6 CFU/mL and 50 μL of diluted culture were added into each well. The test plates were kept in a 37° C. incubator overnight. Optical density was recorded by DTX 880 multimode detector (Beckman Coulter, California, US). MIC is defined as the lowest concentration of the compound that inhibits visible growth of bacteria. Biological replicates were performed. CAMH was used for bacteria culture and MIC test except S. pneumoniae, L. monocytogenes, E. faecalis and M. smegmatis for which BHI was used as culture medium

[2] = test system: Staphylococcus aureus strain USA300-LAC; test: Lethal bacteremia infection model, survival; format: in vivo, Balb/c mice; settings: 10 mg/kg/day intraperitoneal, twice per day, 7 days
Protocol: FIG. 8 is a line graph showing compound 8 and compound 35 rescue mice from Staphylococcus aureus bacteremia infection model. Statistical analysis was performed with a log rank test (Mantel Cox test). (*p<0.05).
Staphylococcus aureus strain USA300-LAC were cultured to the early exponential phase of growth, washed twice with sterile phosphate-buffered saline solution (PBS), and resuspended in PBS at 3×10^7 CFU/200 μL for lethal bacteremia model. The female Balb/c mice, 6-8 weeks, were infected intravenously (i.v.) through the tail vein with Staphylococcus aureus and randomized into three groups (N=11 for vehicle; N=12 for compound 8 and compound 35 respectively). Six hour after infection, mice received intraperitoneal injections of compound 8 or compound 35 (10 mg/kg/day) or an injection of buffer (PBS with 2.5% DMSO and 2% Tween-80) as the control. The compound and injection buffer treatments were performed twice per day at 12-h intervals. The challenged mice were monitored for 7 days, at which point all the remaining mice were sacrificed. Statistical analysis was performed with a log rank test (Mantel Cox test). (*p<0.05).

[3] = test system: Staphylococcus aureus ATCC 35556 biofilm formation; test: Inhibition of biofilm formation (crystal violet); format: cell-based; settings: 24 hours treatment, also sub-inhibitory concentration
Protocol: Staphylococcus aureus ATCC 35556 was treated with various concentrations of compound 8, compound 35 or 1% DMSO as negative control for 24 hours. Biofilm was quantified using crystal violet. The data were normalized to DMSO (100% biofilm) and represent average values±S.D. (n=9 per group). Statistical analysis was performed by ANOVA with Dunnett's post-test to calculate p-values adjusted for multiple comparisons with DMSO as control condition (*p<0.05; **p<0.01; ***p<0.001).
Briefly, overnight cultures of Staphylococcus aureus ATCC 35556 in Tryptic Soy Broth (TSB) were sub-cultured from an overnight culture 1:100 for 2.5 hours. The bacteria were diluted 1:100 into fresh TSB and 200 μL bacteria in TSB was added to each well of a flat-bottomed 96-well plate (200 μL/well). Compounds (two-fold serial dilutions; final DMSO concentration of maximum 1%) were added. Plates were incubated at 37° C. for 24 hours. After 24 hours, the supernatant was removed and washed by PBS (200 μL) 2 times. Biofilms were dried at 37° C. for 30 minutes. 1% Crystal violet (25% ethanol in H2O) was diluted 1:5 in PBS and 200 μL was added to each well, followed by incubation at room temperature for 10 minutes. […] Following a 1:4 dilution step (33% acetic acid), optical density was measured at 595 nm by Beckman Coulter DTX 880 Multimode Detector. […]

[4] = test system: human red blood cell; test: Hemolysis assay; format: cell-based; settings: up to the highest concentration 100 μM, 2 hours, 37° C.
Protocol: FIGS. 3A-3B are diagrams showing the hemolysis ability of compound 8 (FIG. 3A) and compound 35 (FIG. 3B) towards human red blood cell. % Hemolysis were mean±S.D of biological triplicates normalized to 0.1% triton X-100 as positive control.
Citrate-phosphate-dextrose (CPD) human whole blood was obtained from Hong Kong Red Cross. Whole blood was centrifuged in 1000 rpm for 10 minutes to remove the upper plasma layer. The remaining portion was washed by 1×PBS 3 times or until the upper PBS layer was transparent. The upper PBS layer was removed and the lower blood cell layer was diluted into 2% in PBS. 200 μL 2% blood in PBS was then added to round-bottom 96-well plate. Compounds were subsequently added to 96-well plate on 1% DMSO concentration. After incubation in 37° C. for 2 hours, the round-bottom 96-well plate was centrifuged in 1000 rpm for 10 minutes. 50 μL supernatant was transferred to a flat-bottom 96-well plate. Absorbance at 405 nm was then measured by Beckman Coulter DTX 880 Multimode Detector. Biological replicates were performed.

[5] = MRSA Mu3 (Table 2), read-out: Minimum inhibitory concentration
[6] = MRSA, CLSI broth micro-dilution, CAMH, read-out: Minimum inhibitory concentration (μM) in MRSA Mu3

CC(C)C[C@H](ONC(=O)[C@@H](COCc1ccccc1)ONC(=O)c1cc(C(F)(F)F)cc(C(F)(F)F)c1)C(=O)Nc1ccccc1 [Compound 8]
MIC [1, 5]: 3.13 µM (≈ 2.05 µg/mL)
MIC [1, 6]: 3.13 µM (≈ 2.05 µg/mL)
rescue of mice from bacteremia infection (survival) [2]: can rescue mice
formation of the Staphylococcus aureus biofilm [3]: significantly inhibited the formation of the Staphylococcus aureus biofilm even under sub-inhibitory concentration
hemolytic activity on human blood cell [4]: didn't have observable hemolytic activity

CC(C)C[C@H](ONC(=O)[C@@H](COCc1ccccc1)ONC(=O)c1cc(C(F)(F)F)cc(C(F)(F)F)c1)C(=O)Nc1ccc2c(c1)OC(F)(F)O2 [Compound 35]
MIC [1, 5]: 0.78 µM (≈ 0.574 µg/mL)
MIC [1, 6]: 0.781 µM (≈ 0.574 µg/mL)
rescue of mice from bacteremia infection (survival) [2]: can rescue mice
formation of the Staphylococcus aureus biofilm [3]: significantly inhibited the formation of the Staphylococcus aureus biofilm even under sub-inhibitory concentration
hemolytic activity on human blood cell [4]: didn't have observable hemolytic activity
